Legend:
Assay type in all cases: in vivo
[1] = test system: Echinochloa crus-galli var. formosensis; experiment: Test Example 1: herbicidal effect test by soil application in paddy rice; details: Echinochloa crus-galli, soil, 336 h; 120 g active ingredient per 10 ares; applied immediately after sowing, flooded pots; 14 days after application; read-out: weed inhibition rate
In short: (§1)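 Weeds sown 0–1 cm deep (30 seeds each) into fertilized, puddled paddy soil in Wagner pots. Pots are flooded immediately, water held near 3 cm, and the diluted emulsifiable concentrate is dripped in at once, delivering 120 g active ingredient per 10 ares under glass-greenhouse management.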

[2] = test system: Scirpus juncoides; experiment: as above; details: Schoenoplectiella juncoides, soil, 336 h; 120 g active ingredient per 10 ares; applied immediately after sowing, flooded pots; 14 days after application; read-out: weed inhibition rate
In short: as §1

[3] = test system: Echinochloa crus-galli var. formosensis; experiment: Test Example 2: herbicidal effect test by application during growth period of paddy rice; details: Echinochloa crus-galli; 120 g per 10 ares; applied seven days after sowing, flooded pots; 14 days after application; read-out: weed inhibition rate
In short: (§2)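 Herbicidal effect was scored 14 days after treatment, in duplicate per concentration. Weeds sown 0–1 cm deep in puddled, fertilized paddy soil under about 3 cm of standing water received a water-diluted emulsifiable concentrate by dropper 7 days post-sowing, at 120 g a.i. per 10 ares.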

[4] = test system: Scirpus juncoides; experiment: as above; details: Schoenoplectiella juncoides; 120 g per 10 ares; applied seven days after sowing, flooded pots; 14 days after application; read-out: weed inhibition rate
In short: as §2

[5] = test system: Digitaria ciliaris; experiment: Test Example 3: herbicidal effect test by soil application in upland field; details: Digitaria ciliaris, 120 g per 10 ares, sprayed one day after sowing, 14 days after application, read-out: weed inhibition rate
In short: (§3)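 Pre-emergence test: seeds mixed into top 1 cm of alluvial loam upland soil in pots; emulsifiable concentrate diluted in water sprayed on soil one day after sowing at 100 L/10 a, 120 g a.i./10 a. Weed inhibition rate (%) scored at 14 days, in duplicate.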

[6] = test system: Echinochloa crus-galli; experiment: as above; details: Echinochloa crus-galli, 120 g per 10 ares, sprayed one day after sowing, 14 days after application, read-out: weed inhibition rate
In short: as §3

[7] = test system: Digitaria ciliaris; experiment: Test Example 4: herbicidal effect test by stem and leaf treatment in upland field; details: Digitaria ciliaris; 120 g per 10 ares; sprayed seven days after sowing, upland soil; 14 days after application; read-out: weed inhibition rate
[8] = test system: Echinochloa crus-galli; experiment: as above; details: Echinochloa crus-galli; 120 g per 10 ares; sprayed seven days after sowing, upland soil; 14 days after application; read-out: weed inhibition rate
[9] = test system: Echinochloa crus-galli var. formosensis; experiment: Test Example 5: herbicidal effect test by soil application in paddy rice (low dose); details: Echinochloa crus-galli, soil, 336 h; 7.5 g per 10 ares; applied immediately after sowing, flooded pots; 14 days after application; read-out: weed inhibition rate
In short: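 Dose of 7.5 g a.i. per 10 ares, applied by dropper as diluted emulsifiable concentrate to flooded (~3 cm) paddy pots immediately after sowing seeds at 0–1 cm. Kept in a glass greenhouse; duplicate pots rated at 14 days post-application.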

[10] = test system: Echinochloa crus-galli var. formosensis; experiment: Test Example 6: herbicidal effect test by application during growth period of paddy rice (low dose); details: Echinochloa crus-galli; 7.5 g per 10 ares; applied seven days after sowing, flooded pots; 14 days after application; read-out: weed inhibition rate
In short: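 Low-dose water application, 7.5 g a.i. per 10 ares, given by dropper into flooded pots (about 3 cm depth) 7 days after sowing of 30 weed seeds each at 0–1 cm. Evaluation of inhibition (%) took place 14 days later, duplicate per rate.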

[11] = test system: Digitaria ciliaris; experiment: Test Example 7: herbicidal effect test by soil application in upland field (low dose); details: Digitaria ciliaris, 7.5 g per 10 ares, sprayed one day after sowing, 14 days after application, read-out: weed inhibition rate
Procedure: (§4) The present test was conducted in duplicate for each chemical concentration group, and the weed inhibition rate (%) was determined 14 days after chemical application using the following formula (Math. 1). [formula]
(§5) Pots with an area of 36 cm^2 were filled with upland soil (alluvial loam), twenty seeds each of weeds of Digitaria ciliaris, and Echinochloa crus-galli were uniformly mixed with the top 1 cm layer of soil and the surface was lightly pressed down. One day after sowing, an emulsifiable concentrate prepared according to Formulation Example 5 using the compound shown below was diluted with water, and the diluted solution was sprayed onto the soil surface at a rate of 100 liters per 10 ares. The amount of the active ingredient to be applied was equivalent to 7.5 g per 10 ares. Fourteen days after chemical application, the herbicidal effect was evaluated according to the same criteria as in Test Example 1.

[12] = test system: Echinochloa crus-galli; experiment: as above; details: Echinochloa crus-galli, 7.5 g per 10 ares, sprayed one day after sowing, 14 days after application, read-out: weed inhibition rate
Procedure: as §4, §5

[13] = test system: Digitaria ciliaris; experiment: Test Example 8: herbicidal effect test by stem and leaf treatment in upland field (low dose); details: Digitaria ciliaris; 7.5 g per 10 ares; sprayed seven days after sowing, upland soil; 14 days after application; read-out: weed inhibition rate
[14] = test system: Echinochloa crus-galli; experiment: as above; details: Echinochloa crus-galli; 7.5 g per 10 ares; sprayed seven days after sowing, upland soil; 14 days after application; read-out: weed inhibition rate

CC(C)[C@]12C[C@@H](OCc3cccs3)[C@](C)(C[C@@H]1I)O2 [1-788, (1R,2S,4S,5R)-2-iodo-1-isopropyl-4-methyl-5-(2-thienylmethoxy)-7-oxabicyclo[2.2.1]heptane]
≥ 80%: pest or weed control at 1200 g/ha [1] | pest or weed control at 1200 g/ha [2] | inhibition at 1200 g/ha [3] | inhibition at 1200 g/ha [4] | inhibition at 1200 g/ha [5] | inhibition at 1200 g/ha [6] | inhibition at 1200 g/ha [7] | inhibition at 1200 g/ha [8] | inhibition at 75 g/ha [9] | inhibition at 75 g/ha [10] | inhibition at 75 g/ha [11] | inhibition at 75 g/ha [12] | inhibition at 75 g/ha [13] | inhibition at 75 g/ha [14]

CC(C)[C@]12CC(OCc3c(Cl)cccc3Cl)[C@](C)(C[C@@H]1I)O2 (mixture of isomers) [1-779, (1R,2S,4S,SR)-5-[(2,6-dichlorophenyl)methoxy]-2-iodo-1-isopropyl-4-methyl-7-oxabicyclo[2.2.1]heptane]
≥ 80%: pest or weed control at 1200 g/ha [1] | pest or weed control at 1200 g/ha [2] | inhibition at 1200 g/ha [3] | inhibition at 1200 g/ha [4] | inhibition at 1200 g/ha [5] | inhibition at 1200 g/ha [6] | inhibition at 1200 g/ha [7] | inhibition at 1200 g/ha [8] | inhibition at 75 g/ha [9] | inhibition at 75 g/ha [10] | inhibition at 75 g/ha [11] | inhibition at 75 g/ha [12] | inhibition at 75 g/ha [13] | inhibition at 75 g/ha [14]

COc1ccccc1CO[C@@H]1C[C@]2(C(C)C)O[C@@]1(C)C[C@@H]2I [1-747, (1R,2S,4S,5R)-2-iodo-1-isopropyl-5-[(2-methoxyphenyl)methoxy]-4-methyl-7-oxabicyclo[2.2.1]heptane]
≥ 80%: pest or weed control at 1200 g/ha [1] | pest or weed control at 1200 g/ha [2] | inhibition at 1200 g/ha [3] | inhibition at 1200 g/ha [4] | inhibition at 1200 g/ha [5] | inhibition at 1200 g/ha [6] | inhibition at 1200 g/ha [7] | inhibition at 1200 g/ha [8] | inhibition at 75 g/ha [9] | inhibition at 75 g/ha [10] | inhibition at 75 g/ha [11] | inhibition at 75 g/ha [12] | inhibition at 75 g/ha [13] | inhibition at 75 g/ha [14]

Cc1cccc(C)c1CO[C@@H]1C[C@]2(C(C)C)O[C@@]1(C)C[C@@H]2Cl [1-10, (1R,2S,4S,5R)-2-chloro-5-[(2,6-dimethylphenyl)methoxy]-1-isopropyl-4-methyl-7-oxabicyclo[2.2.1]heptane]
≥ 80%: pest or weed control at 1200 g/ha [1] | pest or weed control at 1200 g/ha [2] | inhibition at 1200 g/ha [3] | inhibition at 1200 g/ha [4] | inhibition at 1200 g/ha [5] | inhibition at 1200 g/ha [6] | inhibition at 1200 g/ha [7] | inhibition at 1200 g/ha [8] | inhibition at 75 g/ha [9] | inhibition at 75 g/ha [10] | inhibition at 75 g/ha [11] | inhibition at 75 g/ha [12] | inhibition at 75 g/ha [13] | inhibition at 75 g/ha [14]

CC(C)C12CC(OCc3c(Cl)cccc3Cl)C(C)(CC1Cl)O2 (stereo not shown) [1-1314, 5-chloro-2-[(2,6-dichlorophenyl)methoxy]-1-methyl-4-isopropyl-7-oxabicyclo[2.2.1]heptane]
≥ 80%: pest or weed control at 1200 g/ha [1] | pest or weed control at 1200 g/ha [2] | inhibition at 1200 g/ha [3] | inhibition at 1200 g/ha [4] | inhibition at 1200 g/ha [5] | inhibition at 1200 g/ha [6] | inhibition at 1200 g/ha [7] | inhibition at 1200 g/ha [8] | inhibition at 75 g/ha [9] | inhibition at 75 g/ha [10] | inhibition at 75 g/ha [11] | inhibition at 75 g/ha [12] | inhibition at 75 g/ha [13] | inhibition at 75 g/ha [14]

Reference: patent publication EP4707280A1, “1,4-CINEOLE DERIVATIVE AND INTERMEDIATE THEREOF, HERBICIDE CONTAINING SAID DERIVATIVE AS ACTIVE INGREDIENT, METHOD FOR USING HERBICIDE, AND METHOD FOR PREPARING AGROCHEMICAL COMPOSITION” (HOKKO CHEMICAL INDUSTRY CO., LTD., priority 2023, dated 2024)
